Results on one compound are retold here after patent EP0993460B1, “BENZO(5,6)CYCLOHEPTA(1,2B)PYRIDINE DERIVATIVES USEFUL FOR INHIBITION OF FARNESYL PROTEIN TRANSFERASE” (SCHERING CORPORATION, priority 1997, dated 1998).

The subject of this assay is COS Cell. As to the kind of experiment: COS Cell IC50 (Cell-Based Assay), procedures of WO 95/10516. On the procedure: FPT IC50 (inhibition of farnesyl protein transferase, in vitro enzyme assay) and COS Cell IC50 (Cell-Based Assay) were determined following the assay procedures described in WO 95/10516, published April 20, 1995. GGPT IC50 (inhibition of geranylgeranyl protein transferase, in vitro enzyme assay), Cell Mat Assay, and anti-tumor activity (in vivo anti-tumor studies) could be determined by the assay procedures described in WO 95/ 10516. The disclosure of WO 95/10516 is incorporated herein by reference thereto.

Take `CC1(CC(=O)N2CCC([C@H]3c4ncc(Br)cc4CCc4cc(Cl)cc(Br)c43)CC2)CCN(S(C)(=O)=O)CC1` [Example 1, (+) -4-(3,10-dibromo-8-chloro-6,11-dihydro-5H-benzo[5,6]cyclohepta[1,2-b]pyridin-11(R)-yl)-1-[[4-methyl-1-(methylsulfonyl)-4-pyridinyl]acetyl]piperidine]: the IC50 stood at 22 nM.
